Experimental data as given in article PMC10544575, “Inhibitory mechanism of vortioxetine on CYP450 enzymes in human and rat liver microsomes” (Frontiers in Pharmacology, 2023).

Key:
CYP2C-3 = assay: Reversible inhibition kinetics (Lineweaver-Burk), CYP2C-3 in RLMs; format: in vitro ADME, rat
Description: (§1) The components of the incubation system were as follows: 0.20 mg/mL HLMs or 0.20 mg/mL RLMs, 0.1 M Tris-HCl, vortioxetine, and the probe substrates of each enzyme. In the study of Km’s (Michaelis–Menten constant) experiment, midazolam (1, 2, 5, 10, 20, 50 and 100 μM in HLMs and RLMs) corresponded to CYP3A4/3A; bupropion (10, 20, 50, 100, 200, 500, 1,000 and 2000 μM in HLMs; 1, 2, 5, 10, 20, 50, 100 and 200 μM in RLMs) corresponded to CYP2B6/2B; amodiaquine (5, 10, 20, 50, 100 and 200 μM in HLMs; 10, 20, 50, 100, 200, 500 μM in RLMs) corresponded to CYP2C8/CYP2C-1; losartan (1, 2, 5, 10, 20, 50, 100, 200 μM in HLMs; 10, 20, 50, 100, 200, 500 and 1,000 μM in RLMs) corresponded to CYP2C9/CYP2C-2; mephenytoin (20, 50, 100, 200, 500 and 1,000 μM in HLMs; 5, 10, 20, 50, 100, 200, 500 and 1,000 μM in RLMs) corresponded to CYP2C19/CYP2C-3; and dextromethorphan (1, 2, 5, 10, 20, 50 and 100 μM in HLMs and RLMs) corresponded to CYP2D6/CYP2D. After 5.0 min of preincubation in the shaking water bath, the reaction was started with the addition of 1.0 mM NADPH. The incubated temperature at 37°C for 30 min. After the incubation, the enzyme reaction was stopped by cooling at −80°C, and 200 μL of acetonitrile and 20 μL of internal standard diazepam (200 ng/mL) were added for protein precipitation. The solution was fully vortexed and centrifuged at 13,000 × rpm for 10 min, and the supernatant was collected for data analysis by UPLC-MS/MS.
(§2) The inhibitory mechanism of the inhibitor on the enzyme was generally used by different concentrations of the inhibitor against different concentrations of the probe substrate. The concentrations of the inhibitor and the concentrations of probe substrates in the experiment were estimated based on IC50 and Km values, respectively.
In RLMs, the concentrations of the substrates midazolam and dextromethorphan were 0.8, 1.6, 3.5, 7 μM and 5, 10, 20, 40 μM, respectively, vortioxetine concentrations were 4, 8, 16, 32 μM. The concentrations of mephenytoin and amodiaquine were 100, 200, 400, 800 μM and 5, 10, 20, 40 μM, respectively, vortioxetine concentrations were 5, 10, 20, 40 μM. The losartan concentrations were 4, 8, 15, 30 μM, corresponding to vortioxetine concentrations of 0.08, 0.15, 0.3, 0.6 μM. […]
(§3) All experiments results were detected by UPLC-MS/MS, which equipped with a Waters Acquity UPLC system (Milford, MA, United States) and a Waters Xevo TQ-S triple quadrupole tandem mass spectrometer with an electrospray ionization source (Milford, MA, United States). […]
(§4) IC50 values and enzyme kinetic parameters were calculated by Graphpad Prism 6.0 (GraphPad software Inc., CA, United States). […] Data for each experiment were expressed as mean ± SD (n = 3).

CYP2C8 = target: T1, CYP2C8 (Homo sapiens, UniProt P10632); assay: Reversible inhibition kinetics (Lineweaver-Burk), CYP2C8 in HLMs; format: in vitro ADME; parameters: 0.20 mg/mL HLMs or 0.20 mg/mL RLMs; from tissue; host or cells: human liver microsomes
T1 sequence (P10632 1-490): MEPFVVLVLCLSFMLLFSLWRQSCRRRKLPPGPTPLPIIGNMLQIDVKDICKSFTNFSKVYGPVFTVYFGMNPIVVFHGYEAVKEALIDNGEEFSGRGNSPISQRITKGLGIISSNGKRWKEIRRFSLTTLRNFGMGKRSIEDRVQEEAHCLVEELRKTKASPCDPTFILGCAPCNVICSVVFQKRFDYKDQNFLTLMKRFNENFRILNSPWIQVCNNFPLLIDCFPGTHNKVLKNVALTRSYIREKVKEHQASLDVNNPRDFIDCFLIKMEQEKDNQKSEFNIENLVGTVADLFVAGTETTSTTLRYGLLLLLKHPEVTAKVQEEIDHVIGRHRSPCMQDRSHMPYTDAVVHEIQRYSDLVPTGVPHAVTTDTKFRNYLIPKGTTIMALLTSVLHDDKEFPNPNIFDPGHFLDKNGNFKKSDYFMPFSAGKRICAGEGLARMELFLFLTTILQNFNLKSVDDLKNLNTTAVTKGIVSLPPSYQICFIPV
Description: as §1, §2
In HLMs, the concentrations of the substrates midazolam, bupropion, amodiaquine, losartan, mephenytoin, and dextromethorphan were 1, 2, 4, 8 μM; 10, 20, 40, 80 μM; 0.8, 1.5, 3, 6 μM; 2, 4, 8, 16 μM; 20, 45, 90, 180 μM; 2.5, 5, 10, 20 μM, respectively. Corresponding to the concentration of vortioxetine were 2, 4, 9, 18 μM; 2, 4, 8, 16 μM; 4, 8, 15, 30 μM; 5, 10, 25, 50 μM; 0.6, 1.2, 2.5, 5 μM; 4.5, 9, 18, 36 μM, respectively.
All experiments results were detected by UPLC-MS/MS, which equipped with a Waters Acquity UPLC system (Milford, MA, United States) and a Waters Xevo TQ-S triple quadrupole tandem mass spectrometer with an electrospray ionization source (Milford, MA, United States). The chromatographic separation was performed on a Waters ACQUITY UPLC BEH C18 column (2.1 × 50 mm, 1.7 μm, Waters Corp.) at 40°C. The mobile phase was consisted of acetonitrile (A) and 0.1% formic acid in water (B). The gradient elution at a flow rate of 0.4 mL/min was conducted as follows: 0–0.5 min, 10% A; 0.5–1.0 min, 10%–90% A; 1.0–2.0 min, 90% A; 2.0–2.1 min, 90%–10% A, and 2.1–3.0 min, 10% A. The relevant analysis parameters were shown in Table 1.
IC50 values and enzyme kinetic parameters were calculated by Graphpad Prism 6.0 (GraphPad software Inc., CA, United States). Lineweaver-Burk Plot was used to determine inhibitor patterns. Dixon plots of Ki values were obtained from the slope of the nonlinear regression line in the Lineweaver-Burk plot as a function of different inhibitor concentrations, while secondary plots for αKi were obtained from the y-intercept of the nonlinear regression line in Lineweaver-Burk Plot versus concentration of different inhibitors. Data for each experiment were expressed as mean ± SD (n = 3).

CYP3A = assay: Reversible inhibition kinetics (Lineweaver-Burk), CYP3A in RLMs; format: in vitro ADME, rat
Description: as §1, with “After 5.0 min of preincubation in the shaking water bath, the reaction was started with the addition of 1.0 mM NADPH. The incubated temperature at 37°C for 30 min. After the incubation, the enzyme reaction was stopped by cooling at −80°C, and 200 μL of acetonitrile and 20 μL of internal standard diazepam (200 ng/mL) were added for protein precipitation. The solution was fully vortexed and centrifuged at 13,000 × rpm for 10 min, and the supernatant was collected for data analysis by UPLC-MS/MS.” left out
as §3, §4

## Cc1ccc(Sc2ccccc2N2CCNCC2)c(C)c1 [vortioxetine]
CYP2C-3; mephenytoin
  α: 2.97
CYP2C-3; mephenytoin, Lineweaver-Burk plot
  Inhibition type: noncompetitive inhibition
CYP2C-3; mephenytoin, secondary plot of y-intercepts
  αKi: 12.54 µM
CYP2C-3; rat, rat liver microsomes, probe mephenytoin
  Ki at 30 min: 4.23 µM
CYP2C8; amodiaquine
  Ki: 6.96 µM
  α: 1.94
CYP2C8; amodiaquine, Lineweaver-Burk plot
  Inhibition type: noncompetitive inhibition
CYP2C8; amodiaquine, secondary plot of y-intercepts
  αKi: 13.48 µM
CYP2C8; human, human liver microsomes, probe amodiaquine
  Ki at 30 min: 2.96 µM
CYP3A; midazolam, Lineweaver-Burk plot
  Inhibition type: uncompetitive inhibition
CYP3A; rat, rat liver microsomes, probe midazolam
  Ki at 30 min: 4.41 µM
